{"source": "patent US7915235B2", "about": "“High affinity ligands bind to clostridium difficile toxin A” (priority 2006, dated 2011)", "note": "“And” between values parts separate entries of the source, which are not always exact repeats. Identical values can stand only once."}
{"molecular_target": "Clostridium difficile toxin A (Clostridioides difficile, UniProt P16154)", "sequence (P16154 whole entry, looked up)": "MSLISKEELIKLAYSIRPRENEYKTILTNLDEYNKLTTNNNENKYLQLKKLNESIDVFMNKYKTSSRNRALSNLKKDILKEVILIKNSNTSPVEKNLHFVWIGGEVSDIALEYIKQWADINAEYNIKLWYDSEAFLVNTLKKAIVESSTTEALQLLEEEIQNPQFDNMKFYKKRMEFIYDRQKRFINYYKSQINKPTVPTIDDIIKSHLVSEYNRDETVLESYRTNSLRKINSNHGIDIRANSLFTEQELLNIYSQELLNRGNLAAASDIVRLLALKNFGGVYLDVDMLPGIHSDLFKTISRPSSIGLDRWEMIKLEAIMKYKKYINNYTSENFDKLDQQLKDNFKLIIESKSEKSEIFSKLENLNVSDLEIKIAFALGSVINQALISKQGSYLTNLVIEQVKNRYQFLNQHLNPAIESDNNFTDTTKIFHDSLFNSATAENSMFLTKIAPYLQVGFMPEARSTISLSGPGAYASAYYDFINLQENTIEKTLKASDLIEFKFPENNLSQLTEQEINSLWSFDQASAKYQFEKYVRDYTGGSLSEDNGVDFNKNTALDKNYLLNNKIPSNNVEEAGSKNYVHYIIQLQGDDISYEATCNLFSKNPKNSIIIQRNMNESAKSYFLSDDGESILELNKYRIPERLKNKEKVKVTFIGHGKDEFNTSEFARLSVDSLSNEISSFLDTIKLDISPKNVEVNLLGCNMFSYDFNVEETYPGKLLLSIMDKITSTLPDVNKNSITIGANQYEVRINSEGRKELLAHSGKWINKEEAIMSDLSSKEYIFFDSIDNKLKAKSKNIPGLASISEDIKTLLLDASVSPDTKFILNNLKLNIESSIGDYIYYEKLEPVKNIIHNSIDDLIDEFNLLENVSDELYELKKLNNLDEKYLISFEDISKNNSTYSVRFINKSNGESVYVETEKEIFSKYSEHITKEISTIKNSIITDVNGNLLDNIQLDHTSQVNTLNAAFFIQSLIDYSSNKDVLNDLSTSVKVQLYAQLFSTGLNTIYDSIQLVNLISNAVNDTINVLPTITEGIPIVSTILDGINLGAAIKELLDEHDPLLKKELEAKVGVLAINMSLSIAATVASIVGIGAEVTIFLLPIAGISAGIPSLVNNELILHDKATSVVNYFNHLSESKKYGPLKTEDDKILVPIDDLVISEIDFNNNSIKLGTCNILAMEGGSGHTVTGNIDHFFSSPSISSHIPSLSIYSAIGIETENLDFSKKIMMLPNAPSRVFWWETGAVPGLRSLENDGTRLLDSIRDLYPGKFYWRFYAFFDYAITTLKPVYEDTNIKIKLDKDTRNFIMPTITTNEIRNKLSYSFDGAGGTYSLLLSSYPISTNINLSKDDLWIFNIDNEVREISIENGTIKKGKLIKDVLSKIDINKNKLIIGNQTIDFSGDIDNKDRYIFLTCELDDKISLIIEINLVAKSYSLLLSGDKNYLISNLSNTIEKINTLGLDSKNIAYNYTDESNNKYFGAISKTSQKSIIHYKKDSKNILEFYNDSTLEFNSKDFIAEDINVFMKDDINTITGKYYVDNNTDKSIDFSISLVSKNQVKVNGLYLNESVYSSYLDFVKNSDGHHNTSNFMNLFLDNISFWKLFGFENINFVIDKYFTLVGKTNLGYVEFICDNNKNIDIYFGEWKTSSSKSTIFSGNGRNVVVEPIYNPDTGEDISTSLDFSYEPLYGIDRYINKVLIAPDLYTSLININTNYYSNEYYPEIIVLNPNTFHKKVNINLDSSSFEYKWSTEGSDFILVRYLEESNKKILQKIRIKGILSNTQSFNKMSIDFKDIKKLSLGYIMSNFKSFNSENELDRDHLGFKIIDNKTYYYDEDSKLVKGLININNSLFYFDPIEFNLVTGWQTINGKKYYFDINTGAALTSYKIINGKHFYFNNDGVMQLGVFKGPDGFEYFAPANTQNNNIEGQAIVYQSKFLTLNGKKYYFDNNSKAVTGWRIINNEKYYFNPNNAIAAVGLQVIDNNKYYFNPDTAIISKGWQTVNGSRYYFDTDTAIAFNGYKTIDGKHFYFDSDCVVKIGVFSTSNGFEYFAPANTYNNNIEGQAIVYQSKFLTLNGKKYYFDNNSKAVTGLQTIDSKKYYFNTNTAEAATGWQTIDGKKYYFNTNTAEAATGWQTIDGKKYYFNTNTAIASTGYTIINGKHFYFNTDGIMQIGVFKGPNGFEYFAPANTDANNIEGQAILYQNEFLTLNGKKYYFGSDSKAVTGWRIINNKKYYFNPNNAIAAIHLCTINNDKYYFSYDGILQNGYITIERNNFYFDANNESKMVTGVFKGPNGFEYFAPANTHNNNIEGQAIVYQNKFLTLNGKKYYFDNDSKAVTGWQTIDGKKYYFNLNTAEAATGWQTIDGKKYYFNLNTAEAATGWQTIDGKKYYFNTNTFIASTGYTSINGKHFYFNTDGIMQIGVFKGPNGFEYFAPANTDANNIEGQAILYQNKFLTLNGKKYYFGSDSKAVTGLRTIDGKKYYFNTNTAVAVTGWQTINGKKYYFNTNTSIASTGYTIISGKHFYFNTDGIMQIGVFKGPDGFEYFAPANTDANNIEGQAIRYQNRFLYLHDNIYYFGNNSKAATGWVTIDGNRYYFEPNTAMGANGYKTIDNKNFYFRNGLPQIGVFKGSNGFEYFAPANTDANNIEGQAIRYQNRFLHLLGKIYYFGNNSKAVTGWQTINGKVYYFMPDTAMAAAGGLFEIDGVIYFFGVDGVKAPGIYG", "conditions": "toxin A applied at 200 micrograms/ml; detected with PCG4 antibody and goat anti-mouse Alexa488"}
{"compound": "CC(=O)N[C@@H]1[C@@H](O)[C@H](O[C@@H]2O[C@H](CO)[C@H](O)[C@H](O[C@@H]3O[C@H](CO)[C@H](O)[C@H](O)[C@H]3O)[C@H]2O)[C@@H](CO)O[C@H]1O", "note": "[Galb1-3Galb1-4GlcNAcb]", "fluorescence (FL) signal": 172}
{"compound": "CC(=O)N[C@@H]1[C@@H](O[C@@H]2O[C@@H](C)[C@@H](O)[C@@H](O)[C@@H]2O)[C@H](O[C@@H]2O[C@H](CO)[C@H](O)[C@H](O)[C@H]2O)[C@@H](CO)O[C@H]1O", "note": "[Lewis×, Galb1-4[Fuca1-3]GlcNAcb]", "fluorescence (FL) signal": "122 and 218"}
{"compound": "GalNAca1-3(Fuca1-2)Galb1-4(Fuca1-3)GlcNAcb-", "fluorescence (FL) signal": 327}
{"compound": "GalNAca1-3(Fuca1-2)Galb1-4GlcNAcb-", "fluorescence (FL) signal": 188}
{"compound": "Gala1-3(Fuca1-2)Galb1-4(Fuca1-3)GlcNAcb-", "fluorescence (FL) signal": 789}
{"compound": "Gala1-3Galb1-4(Fuca1-3)GlcNAcb-", "fluorescence (FL) signal": 1814}
{"compound": "Galb1-3(Fuca1-4)GlcNAcb1-3Galb1-4GlcNAcb-", "fluorescence (FL) signal": 29098}
{"compound": "NeuAca2-3Galb1-3(Fuca1-4)GlcNAcb1-3Galb1-4(Fuca1-3)GlcNAcb-", "fluorescence (FL) signal": 14911}
{"compound": "NeuAca2-3Galb1-3GlcNAcb1-3Galb1-4GlcNAcb-", "fluorescence (FL) signal": 4435}
{"test_system": "C. difficile associated diarrhea", "conditions": "per protocol population with recurrent CDAD at enrollment; vancomycin or 6 g tolevamer; cited from earlier work", "units": {"definitive recurrence rate": "%"}}
{"compound": "CN[C@H](CC(C)C)C(=O)N[C@H]1C(=O)N[C@@H](CC(N)=O)C(=O)N[C@H]2C(=O)N[C@H]3C(=O)N[C@H](C(=O)N[C@H](C(=O)O)c4cc(O)cc(O)c4-c4cc3ccc4O)[C@H](O)c3ccc(c(Cl)c3)Oc3cc2cc(c3O[C@@H]2O[C@H](CO)[C@@H](O)[C@H](O)[C@H]2O[C@H]2C[C@](C)(N)[C@H](O)[C@H](C)O2)Oc2ccc(cc2Cl)[C@H]1O", "note": "[vancomycin]", "definitive recurrence rate": 27}
{"test_system": "C. difficile associated diarrhea", "conditions": "per protocol population; 125 mg vancomycin QID or 6 g tolevamer; cited from earlier work", "units": {"definitive recurrence rate confirmed by a positive toxin assay": "%"}}
{"compound": "CN[C@H](CC(C)C)C(=O)N[C@H]1C(=O)N[C@@H](CC(N)=O)C(=O)N[C@H]2C(=O)N[C@H]3C(=O)N[C@H](C(=O)N[C@H](C(=O)O)c4cc(O)cc(O)c4-c4cc3ccc4O)[C@H](O)c3ccc(c(Cl)c3)Oc3cc2cc(c3O[C@@H]2O[C@H](CO)[C@@H](O)[C@H](O)[C@H]2O[C@H]2C[C@](C)(N)[C@H](O)[C@H](C)O2)Oc2ccc(cc2Cl)[C@H]1O", "note": "[vancomycin]", "definitive recurrence rate confirmed by a positive toxin assay": 19}
{"test_system": "C. difficile-associated diarrhea (CDAD)", "conditions": "oral metronidazole 500 mg TID; oral vancomycin 125 mg every 6 h; cited from earlier work", "units": {"response rates": "%"}}
{"compound": "Cc1ncc([N+](=O)[O-])n1CCO", "note": "[metronidazole]", "response rates": "~90"}
{"compound": "CN[C@H](CC(C)C)C(=O)N[C@H]1C(=O)N[C@@H](CC(N)=O)C(=O)N[C@H]2C(=O)N[C@H]3C(=O)N[C@H](C(=O)N[C@H](C(=O)O)c4cc(O)cc(O)c4-c4cc3ccc4O)[C@H](O)c3ccc(c(Cl)c3)Oc3cc2cc(c3O[C@@H]2O[C@H](CO)[C@@H](O)[C@H](O)[C@H]2O[C@H]2C[C@](C)(N)[C@H](O)[C@H](C)O2)Oc2ccc(cc2Cl)[C@H]1O", "note": "[vancomycin]", "response rates": "~90"}
